Where a SMILES comes first, the peptide text is derived from it. Bridges are numbered along the chain shown (N, C = ends). [ ]: non-standard residue; d: D form. R8 = C=CCCCCCC[C@@](C)(N)C(=O)O; R5 = C=CCCC[C@@](C)(N)C(=O)O; S5 = C=CCCC[C@](C)(N)C(=O)O
Legend:
RSV-mCherry virus = conditions: read-out: EC50, inhibition of viral replication; Hep2 cells infected with RSV-mCherry, peptides added post-infection, fluorescence read at 48 h
Method: HEp-2 cells were seeded in 96 well plates and infected with 500 PFU of rHRSV-Cherry virus. Following viral infection, cells were incubated in the presence of serial dilutions of stapled peptides. The red fluorescence was read at 48 h post infection by automatic counting.
rHRSV-mCherry Inhibition Assay.
HEp-2 cells were seeded at 5×10^4 cells per well in 96 well plates the day before and infected for 2 hours with 500 PFU of RSV-mCherry. The medium was then changed against MEM without phenol red medium containing dilutions of peptides. Each point of peptide dilution was made in duplicate. Plates were incubated 48 h at 37° C. and mCherry fluorescence measurement was performed using a spectrofluorometer (Tecan infinite M200PRO) with excitation and emission wavelengths of 580 and 620 nm, respectively (expressed in relative fluorescence units RFU). Non-infected HEp-2 cells were used as standards for fluorescence background levels.
Next the potential activity of stapled peptides was tested on infected cells. Hep2 cells were infected with a RSV-mCherry virus engineered by reverse genetics (Rameix-Welti et al, Nat Comm., 2014), and increasing concentrations of stapled peptides were added post-infection to study their effect on viral replication.

in vitro = assay type: cell-based; conditions: human
Method: (§1) HEp-2 (ATCC number CCL-23) and BHK-21 (clone BSRT7/5) cells were maintained in Eagle's miminum essential medium (EMEM) and Dulbecco's modified Eagle's medium (DMEM), respectively, supplemented with 10% FCS, 2 mM L-glutamine, and penicillin-streptomycin solution. The cells were grown in an incubator at 37° C. in 5% CO2. Cytotoxicity assays were done with the CellTiter-Glo Luminescent cell viability assay (Promega). Cells were transfected using Lipofectamine 2000 (Invitrogen, Cergy-Pontoise, France) as described by the manufacturer.

[1] = Far-UV CD spectroscopy (alpha-helical content); assay type: physicochemical; conditions: 10 mM phosphate buffer, pH 7.5
Method: FIGS. 7A-7C: Far-UV CD spectra of stapled peptides in 10 mM phosphate buffer, pH 7.5. […] HEVS 115-129.
CD experiments were performed on a Jasco-810 or on a Chirascan spectropolarimeter in a thermostated cell holder at 20° C. The samples were prepared in 10 mM phosphate buffer, pH 7.5, at a peptide concentration of 25 μM for HEVS 73-79 or […] for the other peptides. The far-UV spectra were recorded at 25° C. by step scan from 190 nm to 250 nm with a scan rate of 100 nm per min using a bandwidth of 1 nm and an integration time of 1 s. Each spectrum was the average of 5 scans. The spectra were substracted from buffer baseline and smoothed using the FFT filter (Jasco Software, Tokyo, Japan). The data were converted to per residue molar ellipticity units [Θ] (deg.cm^2.dmol^−l.residue^−1). The percentage of helicity was calculated as follows:
[formula] whereby CD222=molar ellipticity [e] at 222 nm in [mdeg], N=number of amino acids in the peptide and C=peptide molar concentration [mol/1].

rHRSV-Luc = test: In vivo mice luciferase assay (rHRSV-Luc-infected mice); conditions: intranasal, 0.6 mg/ml, 50 μL in PBS, repeated at days 2 and 4; 6x10^4 PFU rHRSV-Luc
Excerpt: In Vivo Mice Luciferase Assay.
Female BALB/c mice were purchased from the Centre d'ElevageR. Janvier (Le Genest Saint-Isle, France) and were used around 8 weeks of age. Mice strains were bred in a pathogen-free animal facility. Mice were fed normal mouse chow and water ad libitum and were raised and housed under standard conditions with air filtration. For infection experiments, mice were housed in cages inside stainless steel isolation cabinets that were ventilated under negative pressure with high-efficiency particulate air-filtered air. Mice were anesthetized by a mixture of ketamine and xylazine (1 and 0.2 mg per mouse, respectively) and infected IN with 50 μl of PBS containing 6×10^4 PFU of rHRSV-Luc. Body temperature and body weight were monitored at days 3-10. For in vivo imaging, mice were anesthetized. Alternatively, mice were killed at different time points, and lungs were then collected. For each time point, experiments were done in quadruplicate. […] Oral treatments were administered 1 h prior to RSV inoculation and then once on day 2 and on day 4. This experiment was repeated once.

Hep2 cells = test: in vitro; assay type: cell-based; conditions: at a concentration of 100 μM
Method: as §1

| Compound | EC50 (RSV-mCherry virus) | other results |
| --- | --- | --- |
| CC[C@H](C)[C@@H]1NC(=O)[C@@](C)(NC(=O)[C@H](CCC(=O)O)NC(=O)[C@H](CC(C)C)NC(=O)[C@H](Cc2ccccc2)NC(=O)[C@H](CCCCN)NC(=O)[C@@H](NC(=O)[C@H](C)NC(=O)[C@H](CCCCN)NC(=O)[C@H](CC(N)=O)NC(=O)[C@H](CC(N)=O)NC(=O)[C@H](C)NC(=O)[C@H](CC(=O)O)NC(=O)[C@H](CCC(=O)O)NC(C)=O)[C@@H](C)O)CCCC=CCCC[C@@](C)(C(=O)N[C@@H](Cc2ccccc2)C(=O)N[C@@H](C)C(=O)N[C@@H](CO)C(N)=O)NC(=O)CNC(=O)[C@H](CCCCN)NC1=O [HEVS 78] (Ac-EDANNKATKFLE[S5]IKG[S5]FAS-NH2; staple 13-17) | 15 µM | CC50 (in vitro): ~40 µM |
| CC[C@H](C)[C@H](NC(=O)[C@]1(C)CCCC=CCCCCCC[C@@](C)(NC(=O)[C@H](CC(N)=O)NC(=O)[C@H](CC(N)=O)NC(=O)[C@H](C)NC(=O)[C@H](CC(=O)O)NC(=O)[C@H](CCC(=O)O)NC(C)=O)C(=O)N[C@@H](C)C(=O)N[C@@H]([C@@H](C)O)C(=O)N[C@@H](CCCCN)C(=O)N[C@@H](Cc2ccccc2)C(=O)N[C@@H](CC(C)C)C(=O)N[C@@H](CCC(=O)O)C(=O)N1)C(=O)N[C@@H](CCCCN)C(=O)NCC(=O)N[C@@H](CCCCN)C(=O)N[C@@H](Cc1ccccc1)C(=O)N[C@@H](C)C(=O)N[C@@H](CO)C(N)=O [HEVS 77, EDANNR8ATKFLES5IKGKFAS] (Ac-EDANN[R8]ATKFLE[S5]IKGKFAS-NH2; staple 6-13) | 60 µM | – |
| EDANNKATKFLESIKGKFAS [HEVS 73] | – | folding state by far UV CD [1]: largely unfolded |
| CC[C@H](C)[C@H](NC(=O)[C@]1(C)CCCC=CCCCCCC[C@@](C)(NC(=O)[C@H](CC(N)=O)NC(=O)[C@H](CC(N)=O)NC(=O)[C@H](C)NC(=O)[C@H](CC(=O)O)NC(=O)[C@H](CCC(=O)O)NC(=O)CNC(=O)[C@H](Cc2c[nH]cn2)NC(=O)[C@H](Cc2ccccc2)NC(=O)[C@H](CCC(=O)O)NC(C)=O)C(=O)N[C@@H](C)C(=O)N[C@@H]([C@@H](C)O)C(=O)N[C@@H](CCCCN)C(=O)N[C@@H](Cc2ccccc2)C(=O)N[C@@H](CC(C)C)C(=O)N[C@@H](CCC(=O)O)C(=O)N1)C(=O)N[C@@H](CCCCN)C(=O)NCC(=O)N[C@@H](CCCCN)C(=O)N[C@@H](Cc1ccccc1)C(=O)N[C@@H](C)C(=O)N[C@@H](CO)C(N)=O [HEVS 124] | 11 µM | luciferase activity (bioluminescence) in treated mice (rHRSV-Luc): significant reduction |
| CC[C@H](C)[C@@H]1NC(=O)[C@](C)(NC(=O)[C@H](CCC(=O)O)NC(=O)[C@H](CC(C)C)NC(=O)[C@H](Cc2ccccc2)NC(=O)[C@H](CCCCN)NC(=O)[C@@H](NC(=O)[C@H](C)NC(=O)[C@H](CCCCN)NC(=O)[C@H](CC(N)=O)NC(=O)[C@H](CC(N)=O)NC(=O)[C@H](C)NC(=O)[C@H](CC(=O)O)NC(=O)[C@H](CCC(=O)O)NC(C)=O)[C@@H](C)O)CCCCCCC=CCCC[C@@](C)(C(N)=O)NC(=O)[C@H](C)NC(=O)[C@H](Cc2ccccc2)NC(=O)[C@H](CCCCN)NC(=O)CNC(=O)[C@H](CCCCN)NC1=O [HEVS 79] (Ac-EDANNKATKFLE[R8]IKGKFA[S5]-NH2; staple 13-20) | ~80 µM | – |
| CC[C@H](C)[C@H](NC(=O)[C@]1(C)CCCC=CCCCCCC[C@@](C)(NC(=O)[C@H](CC(N)=O)NC(=O)[C@H](CC(N)=O)NC(=O)[C@H](C)NC(=O)[C@]2(C)CCCC=CCCC[C@@](C)(NC(=O)[C@H](Cc3ccccc3)NC(=O)[C@H](CCC(=O)O)NC(C)=O)C(=O)NCC(=O)N[C@@H](CCC(=O)O)C(=O)N2)C(=O)N[C@@H](C)C(=O)N[C@@H]([C@@H](C)O)C(=O)N[C@@H](CCCCN)C(=O)N[C@@H](Cc2ccccc2)C(=O)N[C@@H](CC(C)C)C(=O)N[C@@H](CCC(=O)O)C(=O)N1)C(=O)N[C@@H](CCCCN)C(=O)NCC(=O)N[C@@H](CCCCN)C(=O)N[C@@H](Cc1ccccc1)C(=O)N[C@@H](C)C(=O)N[C@@H](CO)C(N)=O [HEVS 126, EFR5GES5ANNR8ATKFLES5IKGKFAS] (Ac-EF[R5]GE[S5]ANN[R8]ATKFLE[S5]IKGKFAS-NH2; staple 3-6, 10-17) | 3.5 µM | cytotoxicity (Hep2 cells): cytotoxic |

Source: patent US10774114B2, “Respiratory syncytial virus (RSV) replication inhibitors” (priority 2014, dated 2020)
